Measurements: US20250195521A1 (Revolution Medicines, Inc., priority 2020, published 2025)
Values joined by “and” are separate entries in the source; they are usually repeats but may differ in a detail not shown here. Identical values can stand only once.

Legend:
[1] = molecular target: KRAS G13D (Homo sapiens (Human), UniProt P01116+P62937, G13D); experiment: Ras-Raf disruption/FRET/MOA assay (BRAF RBD, Cyclophilin A); assay type: biochemical; settings: read-out: KRAS G13D FRET data IC50
Method: (§1) Compound is present in plate wells as a 10-point 3-fold dilution series starting at a final concentration of 30 μM. After incubation at 25° C. for 3 hours, a mixture of Anti-His Eu—W1024 and anti-GST allophycocyanin is then added to assay sample wells at final concentrations of 10 nM and 50 nM, respectively, and the reaction incubated for an additional 1.5 hours. […] Compounds that facilitate disruption of a Ras: RAF complex are identified as those eliciting a decrease in the TR-FRET ratio relative to DMSO control wells.
(§2) Disruption of B-Raf Ras-Binding Domain (BRAF^RBD) Interaction with K-Ras by Compounds of the Invention (Also Called a FRET Assay or an MOA Assay)
(§3) Note—The following protocol describes a procedure for monitoring disruption of K-Ras G12C (GMP-PNP) binding to BRAF^RBD by a compound of the invention. This protocol may also be executed substituting other Ras proteins or nucleotides.
(§4) The purpose of this biochemical assay was to measure the ability of test compounds to facilitate ternary complex formation between a nucleotide-loaded K-Ras isoform and Cyclophilin A; the resulting ternary complex disrupts binding to a BRAF^RBD construct, inhibiting K-Ras signaling through a RAF effector. Data is reported as IC50 values.
(§5) In assay buffer containing 25 mM HEPES pH 7.3, 0.002% Tween20, 0.1% BSA, 100 mM NaCl and 5 mM MgCl2, tagless Cyclophilin A, His6-K-Ras-GMPPNP, and GST-BRAF^RBD were combined in a 384-well assay plate at final concentrations of 25 μM, 12.5 nM and 50 nM, respectively. Compound was present in plate wells as a 10-point 3-fold dilution series starting at a final concentration of 30 μM. After incubation at 25° C. for 3 hours, a mixture of Anti-His Eu—W1024 and anti-GST allophycocyanin was then added to assay sample wells at final concentrations of 10 nM and 50 nM, respectively, and the reaction incubated for an additional 1.5 hours. […] Compounds that facilitate disruption of a K-Ras: RAF complex were identified as those eliciting a decrease in the TR-FRET ratio relative to DMSO control wells.

[2] = molecular target: NRAS G12C (Homo sapiens (Human), UniProt P01111+P62937, G12C); experiment: as above; assay type: biochemical; settings: read-out: NRAS G12C FRET data IC50
Chain of NRAS G12C (P01111 whole entry G12C): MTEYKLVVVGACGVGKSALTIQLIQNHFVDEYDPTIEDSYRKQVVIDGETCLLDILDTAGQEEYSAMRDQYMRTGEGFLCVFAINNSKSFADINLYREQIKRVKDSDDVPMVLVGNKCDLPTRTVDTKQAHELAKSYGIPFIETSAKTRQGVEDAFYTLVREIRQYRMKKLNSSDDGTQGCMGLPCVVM
Chain of NRAS G12C (P62937 whole entry): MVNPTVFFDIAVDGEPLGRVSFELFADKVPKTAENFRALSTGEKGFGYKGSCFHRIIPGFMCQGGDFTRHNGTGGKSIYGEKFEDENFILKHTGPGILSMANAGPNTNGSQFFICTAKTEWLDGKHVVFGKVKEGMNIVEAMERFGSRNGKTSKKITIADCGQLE
Method: as §1, §2, §3, §4, §5

[3] = tested on: K-Ras G12C (NCI-H358 cells); experiment: Potency assay: pERK in NCI-H358 cells; assay type: cell-based, human; settings: Homo sapiens; NCI-H358 cells, 4 hours; read-out: pERK EC50 (H358 KRAS G12C)
Method in brief: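 Cells plated the day before were exposed for 4 h at 37° C, 5% CO2 to a 10-point, 3-fold DMSO dilution series (10 mM top stock), in duplicate. Phospho-ERK was read by AlphaLISA SureFire Ultra or by In-Cell Western with DRAQ5 DNA stain, and IC50 came from a 4-parameter sigmoidal fit.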

[4] = molecular target: KRAS WT (Homo sapiens (Human), UniProt P01116+P62937); experiment: Ras-Raf disruption/FRET/MOA assay (BRAF RBD, Cyclophilin A); assay type: biochemical; settings: read-out: KRAS WT FRET data IC50
Chain of KRAS WT (P01116 other isoform, or with tags, fused parts or gaps): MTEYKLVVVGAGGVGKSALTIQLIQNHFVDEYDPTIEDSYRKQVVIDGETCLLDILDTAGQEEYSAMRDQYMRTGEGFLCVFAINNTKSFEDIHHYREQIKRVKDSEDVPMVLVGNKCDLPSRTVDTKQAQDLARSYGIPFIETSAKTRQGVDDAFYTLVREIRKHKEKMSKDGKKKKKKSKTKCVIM
Chain of KRAS WT (P62937 whole entry): as the sequence (P62937 whole entry) above
Method: as §1, §2, §3, §4, §5

[5] = molecular target: KRAS G12C (Homo sapiens (Human), UniProt P01116+P62937, G12C); experiment: as above; assay type: biochemical; settings: read-out: KRAS G12C FRET IC50
Chain of KRAS G12C (P01116-2 other isoform, or with tags, fused parts or gaps G12C): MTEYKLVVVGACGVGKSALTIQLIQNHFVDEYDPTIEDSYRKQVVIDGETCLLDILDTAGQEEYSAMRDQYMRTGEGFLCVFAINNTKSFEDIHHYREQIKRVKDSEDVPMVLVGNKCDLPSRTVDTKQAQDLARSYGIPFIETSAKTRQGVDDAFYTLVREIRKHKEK
Chain of KRAS G12C (P62937 whole entry): as the sequence (P62937 whole entry) above
Method: as §1, §2, §3, §4, §5

[6] = molecular target: KRAS G12S (Homo sapiens (Human), UniProt P01116+P62937, G12S); experiment: as above; assay type: biochemical; settings: read-out: KRAS G12S FRET IC50
Chain of KRAS G12S (P01116 other isoform, or with tags, fused parts or gaps G12S): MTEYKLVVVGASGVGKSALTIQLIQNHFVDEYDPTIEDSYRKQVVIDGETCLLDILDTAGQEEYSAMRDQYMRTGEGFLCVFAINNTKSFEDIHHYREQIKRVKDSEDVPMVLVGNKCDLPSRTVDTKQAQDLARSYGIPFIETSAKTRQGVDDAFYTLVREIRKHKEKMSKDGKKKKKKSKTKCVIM
Chain of KRAS G12S (P62937 whole entry): as the sequence (P62937 whole entry) above
Method: as §1, §2, §3, §4, §5

[7] = molecular target: KRAS G13C (Homo sapiens (Human), UniProt P01116+P62937, G13C); experiment: as above; assay type: biochemical; settings: read-out: KRAS G13C FRET IC50
Chain of KRAS G13C (P01116 other isoform, or with tags, fused parts or gaps G13C): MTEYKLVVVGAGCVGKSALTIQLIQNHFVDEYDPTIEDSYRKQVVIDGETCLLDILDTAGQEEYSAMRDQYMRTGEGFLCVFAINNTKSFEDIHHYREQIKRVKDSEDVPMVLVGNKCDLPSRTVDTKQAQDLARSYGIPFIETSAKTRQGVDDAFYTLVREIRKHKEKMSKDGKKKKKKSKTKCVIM
Chain of KRAS G13C (P62937 whole entry): as the sequence (P62937 whole entry) above
Method: as §1, §2, §3, §4, §5

[8] = molecular target: KRAS G12D (Homo sapiens (Human), UniProt P01116+P62937, G12D); experiment: as above; assay type: biochemical; settings: read-out: KRAS G12D FRET IC50
Chain of KRAS G12D (P01116 other isoform, or with tags, fused parts or gaps G12D): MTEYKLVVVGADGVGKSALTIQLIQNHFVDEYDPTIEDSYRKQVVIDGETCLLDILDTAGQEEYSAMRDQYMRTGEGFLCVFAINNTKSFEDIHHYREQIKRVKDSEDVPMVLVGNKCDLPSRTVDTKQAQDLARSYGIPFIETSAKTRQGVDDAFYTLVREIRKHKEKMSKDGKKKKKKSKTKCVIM
Chain of KRAS G12D (P62937 whole entry): as the sequence (P62937 whole entry) above
Method: as §1, §2, §3, §4, §5

[9] = molecular target: KRAS G12V (Homo sapiens (Human), UniProt P01116+P62937, G12V); experiment: as above; assay type: biochemical; settings: read-out: KRAS G12V FRET IC50
Chain of KRAS G12V (P01116 other isoform, or with tags, fused parts or gaps G12V): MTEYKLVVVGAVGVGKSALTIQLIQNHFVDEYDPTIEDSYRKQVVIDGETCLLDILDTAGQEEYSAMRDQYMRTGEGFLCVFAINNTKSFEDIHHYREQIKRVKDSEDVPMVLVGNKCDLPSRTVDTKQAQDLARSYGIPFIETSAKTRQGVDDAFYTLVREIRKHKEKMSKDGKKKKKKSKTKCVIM
Chain of KRAS G12V (P62937 whole entry): as the sequence (P62937 whole entry) above
Method: as §1, §2, §3, §4, §5

[10] = tested on: Capan-1 cells (K-Ras G12V); experiment: CellTiter-Glo cell viability, Capan-1; assay type: cell-based, human; settings: Homo sapiens, CAPAN-1, 120 h, K-Ras G12V, 5-day treatment; read-out: Capan-1 Cell Viability IC50
Method: Note—The following protocol describes a procedure for monitoring cell viability of K-Ras mutant cancer cell lines in response to a compound of the invention. Other RAS isoforms may be employed, though the number of cells to be seeded will vary based on cell line used.
Test compounds (132.5 nl) were directly dispensed into the assay plates containing cells. […] On day 5, assay plates and their contents were equilibrated to room temperature for approximately 30 minutes. […] Luminescence was measured using the PerkinElmer Enspire. Data were normalized by the following: (Sample signal/Avg. DMSO)*100. The data were fit using a four-parameter logistic fit.

Chain of KRAS G13D (P01116 other isoform, or with tags, fused parts or gaps G13D): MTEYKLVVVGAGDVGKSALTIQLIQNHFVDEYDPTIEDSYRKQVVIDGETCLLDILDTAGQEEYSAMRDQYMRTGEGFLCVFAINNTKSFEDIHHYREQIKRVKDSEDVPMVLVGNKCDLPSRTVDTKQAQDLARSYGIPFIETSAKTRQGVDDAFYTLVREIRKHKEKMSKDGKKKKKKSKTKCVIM
Chain of KRAS G13D (P62937 whole entry): as the sequence (P62937 whole entry) above

Structure (SMILES)	EC50 [3] [µM]	IC50 [5] [µM]	IC50 [1]	IC50 [2] [µM]	IC50 [4] [µM]	IC50 [6] [µM]	IC50 [7] [µM]	IC50 [8] [µM]	IC50 [9] [µM]	IC50 [10] [µM]
CCn1c(-c2cnccc2COC)c2c3cc(ccc31)-c1cc(O)cc(c1)C[C@H](NC(=O)[C@H](C(C)C)N(C)C(=O)[C@H]1CCN(C(C)C)C1)C(=O)N1CCC[C@H](N1)C(=O)OCC(C)(C)C2 [Compound A41]			0.01 to 0.1 µM	0.1 to 1						
CCn1c(-c2cccnc2COC)c2c3cc(ccc31)-c1cc(O)cc(c1)C[C@H](NC(=O)[C@H](C(C)C)N(C)C(=O)[C@H](N)CCCNC(=N)N)C(=O)N1CCC[C@H](N1)C(=O)OCC(C)(C)C2 [Compound A48]			0.1 to 1 µM							
CCn1c(-c2cccnc2[C@H](C)OC)c2c3cc(ccc31)-c1cc(O)cc(c1)C[C@H](NS(=O)(=O)N1CCC1)C(=O)N1CCC[C@H](N1)C(=O)OCC(C)(C)C2 [Compound A189]			> 10 µM	> 10	> 10	> 10	> 10	> 10	> 10	> 10
CCn1c(-c2cccnc2[C@H](C)OC)c2c3cc(ccc31)-c1cc(O)cc(c1)C[C@H](NS(=O)(=O)C1CS(=O)(=O)C1)C(=O)N1CCC[C@H](N1)C(=O)OCC(C)(C)C2 [Compound A191]			> 10 µM	> 10	> 10	> 10	> 10	> 10	> 10	> 10
CCn1c(-c2cccnc2[C@H](C)OC)c2c3cc(ccc31)-c1cc(O)cc(c1)C[C@H](NS(=O)(=O)c1ccc(O)cc1)C(=O)N1CCC[C@H](N1)C(=O)OCC(C)(C)C2 [Compound A195]			> 10 µM	> 10	> 10	> 10	> 10	> 10	> 10	> 10
CCn1c(-c2cccnc2[C@H](C)OC)c2c3cc(ccc31)-c1cc(O)cc(c1)C[C@H](NS(=O)(=O)C1CC1)C(=O)N1CCC[C@H](N1)C(=O)OCC(C)(C)C2 [Compound A196]			> 10 µM	> 10	> 10	> 10	> 10	> 10	> 10	> 10

Now from value to compound, other results behind:

EC50 [3] [µM]	IC50 [5] [µM]	Structure (SMILES)	IC50 [1]	IC50 [2] [µM]	IC50 [4] [µM]	IC50 [6] [µM]	IC50 [7] [µM]	IC50 [8] [µM]	IC50 [9] [µM]	IC50 [10] [µM]
< 5	0.01 to 0.1	CCn1c(-c2cccnc2[C@H](C)OC)c2c3cc(ccc31)-c1cc(O)cc(c1)C[C@H](NC(=O)[C@H](C(C)C)N(C)C(=O)[C@H]1C[C@H]1F)C(=O)N1CCC[C@H](N1)C(=O)OCC(C)(C)C2 [Compound A162]	0.01 to 0.1 µM	0.01 to 0.1	0.01 to 0.1	0.01 to 0.1	0.01 to 0.1	0.1 to 1		
< 5	0.1 to 1	CCn1c(-c2cccnc2[C@H](C)OC)c2c3cc(ccc31)-c1cc(O)cc(c1)C[C@H](NC(=O)C(C)Cc1ccncc1)C(=O)N1CCC[C@H](N1)C(=O)OCC(C)(C)C2 (stereo partly shown) [Compound A179]	0.1 to 1 µM and 1 to 10 µM	1 to 10	0.1 to 1	1 to 10	0.1 to 1	1 to 10	1 to 10	
